For series [1], the system named is LPS-induced NO production in macrophage RAW 264.7 cells (iNOS). In words: Inhibition of LPS-induced NO production in RAW 264.7 macrophages (Griess reaction, measure of iNOS activity).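 As to all read-outs here: cells pretreated with compound for 2 h, then stimulated 24 h with LPS at 500 ng/ml, supernatant nitrite quantified by absorbance at 550 nm against a nitrite standard curve.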 The format is cell-based. Particulars: for inhibition at 50 µM / Inhibition of NO production at 50 µM (%): 50 µM compound; for inhibition at 50 µM: read-out: Inhibition of NO production at 50 µM (%); for IC50: means ± SE, n = 3. A general note: The Griess reaction detects nitrite, a stable product of nitric oxide.

For series [2], the system named is RAW 264.7 cells.
For series [3], the target named is T1, sEH (Homo sapiens, UniProt P34913).
T1 sequence (P34913 1-555): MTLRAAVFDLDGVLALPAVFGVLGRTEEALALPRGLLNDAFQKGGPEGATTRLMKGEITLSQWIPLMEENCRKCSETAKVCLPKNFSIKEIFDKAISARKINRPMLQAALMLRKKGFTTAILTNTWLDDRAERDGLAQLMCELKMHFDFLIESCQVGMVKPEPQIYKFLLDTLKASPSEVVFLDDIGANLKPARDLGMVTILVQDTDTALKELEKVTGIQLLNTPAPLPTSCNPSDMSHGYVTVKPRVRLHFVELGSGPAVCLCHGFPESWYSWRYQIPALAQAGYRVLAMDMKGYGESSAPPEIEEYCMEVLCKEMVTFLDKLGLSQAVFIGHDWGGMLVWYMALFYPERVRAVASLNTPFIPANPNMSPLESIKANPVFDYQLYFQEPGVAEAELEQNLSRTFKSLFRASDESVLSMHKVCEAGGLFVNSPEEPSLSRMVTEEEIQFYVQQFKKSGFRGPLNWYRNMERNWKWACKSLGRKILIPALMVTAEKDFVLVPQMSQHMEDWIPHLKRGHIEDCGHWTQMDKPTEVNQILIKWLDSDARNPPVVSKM
In words: sEH inhibitory activity, fluorescence assay with PHOME substrate. The format is biochemical. Particulars: for inhibition at 100 µM: 100 µM compound, tested three times; for IC50: PHOME substrate, dose-dependent response curve.

Setting [4] is: Mus musculus, LPS-stimulated RAW264.7 cells.
Where [5] appears, read: Mus musculus, RAW264.7, LPS-stimulated RAW264.7 cells.

This note sets out measurements from article PMC6407587, “Inhibition potential of phenolic constituents from the aerial parts of Tetrastigma hemsleyanum against soluble epoxide hydrolase and nitric oxide synthase” (Journal of Enzyme Inhibition and Medicinal Chemistry, 2019).

SMILES strings stand for the structures.

What is called inhibition is the relative decrease from the control value, in per cent. For orientation: IC50 means the concentration at which inhibition is half-maximal. A low value points to higher potency.
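For Cytotoxicity in RAW 264.7 cells (MTT) in this document: viability gauged by mitochondrial reductase turning MTT into formazan, optical density read at 570 nm, with untreated control cells set as 100% viability.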

As for `O=C(/C=C/c1ccc(O)c(O)c1)O[C@@H]1C[C@@](O)(C(=O)O)C[C@@H](O)[C@@H]1O` [Compound 1], the inhibition at 50 µM in series [1] (setting [4]) worked out at 5.7%. In addition, in series [2], the “Cytotoxicity in RAW 264.7 cells (MTT)” value is on record as “did not exhibit significant cytotoxicity”. Besides, in series [3], the inhibition at 100 µM came to 74.3 ± 3.4% and the IC50 worked out at 41.9 ± 1.2 µM.
As for `O=C(/C=C/c1ccc(O)cc1)O[C@@H]1C[C@@](O)(C(=O)O)C[C@@H](O)[C@@H]1O` [Compound 2], the inhibition at 50 µM in series [1] (setting [4]) was determined as 19.7%. Further, in series [2], the “Cytotoxicity in RAW 264.7 cells (MTT)” value is “did not exhibit significant cytotoxicity”. Besides, in series [3], the inhibition at 100 µM turned out to be 4.4 ± 3.2%.
Take `COc1cc(/C=C/C(=O)O[C@@H]2C[C@@](O)(C(=O)O)C[C@@H](O)[C@@H]2O)ccc1O` [Compound 3]: the inhibition at 50 µM in series [1] (setting [4]) stood at 26.1%. Besides, in series [2], the “Cytotoxicity in RAW 264.7 cells (MTT)” value is “did not exhibit significant cytotoxicity”. Moreover, in series [3], the inhibition at 100 µM was found to be 67.1 ± 3.4% and half-maximal inhibition (IC50) was put at 60.7 ± 1.9 µM.
`COC(=O)[C@@]1(O)C[C@@H](O)[C@H](O)[C@H](OC(=O)/C=C/c2ccc(O)c(O)c2)C1` [Compound 4]: in series [1] (LPS-stimulated RAW264.7 cells), the “Inhibition of NO production at 50 µM (%)” value is “N.I”. For the same molecule, in series [3], the inhibition at 100 µM is 68.3 ± 3.4% and the IC50 amounted to 30.4 ± 0.8 µM.
As to `CCCCOC(=O)[C@@]1(O)C[C@@H](O)[C@H](O)[C@H](OC(=O)/C=C/c2ccc(O)c(O)c2)C1` [Compound 5], the IC50 in series [1] (setting [5]) stood at 45.3 ± 1.4 µM. Also, the inhibition at 50 µM in series [1] (setting [4]) was 53%. In addition, the “Cytotoxicity in RAW 264.7 cells (MTT)” value in series [2] is “did not exhibit significant cytotoxicity”. For the same molecule, in series [3], the inhibition at 100 µM was 77.7 ± 2.6% and the IC50 turned out to be 33.1 ± 0.3 µM.
Consider `COC(=O)[C@]1(O)C[C@@H](O)[C@@H](O)[C@H](OC(=O)/C=C/c2ccc(O)c(O)c2)C1` [Compound 6], for which, in series [1] (setting [4]), the inhibition at 50 µM was determined as 1.8%. Besides, in series [3], the inhibition at 100 µM worked out at 111 ± 1.9% and it took 14.7 ± 0.4 µM to reach half-maximal inhibition (IC50).
As to `O=C(C=Cc1ccc(O)c(O)c1)OC1C(O)CC(O)(C(=O)O)CC1O` (stereo not drawn) [Compound 7], in series [1] (setting [4]), the inhibition at 50 µM came out at 10.7%. Moreover, the “Cytotoxicity in RAW 264.7 cells (MTT)” value in series [2] is reported as “did not exhibit significant cytotoxicity”. Further, in series [3], the inhibition at 100 µM amounted to 69.2 ± 0.9% and the IC50 was found to be 50.8 ± 1.5 µM.
In the case of `O=C(/C=C\c1ccc(O)cc1)O[C@@H]1C[C@@](O)(C(=O)O)C[C@@H](O)[C@@H]1O` [Compound 9], in series [1] (LPS-stimulated RAW264.7 cells), the “Inhibition of NO production at 50 µM (%)” value is recorded as “N.I”. Also, the “Cytotoxicity in RAW 264.7 cells (MTT)” value in series [2] is reported as “did not exhibit significant cytotoxicity”. Further, the inhibition at 100 µM in series [3] was 32.3 ± 2.7%.
In the case of `O=C1C[C@@H](c2ccc(O)cc2)Oc2cc(O)ccc21` [Compound 11], in series [1] (setting [4]), the inhibition at 50 µM is 10.8%. Further, the inhibition at 100 µM in series [3] came to 34.5 ± 2.5%.
`O=C1c2c(O)cc(O)cc2O[C@H](c2ccc(O)cc2)[C@H]1O[C@@H]1O[C@H](CO)[C@@H](O)[C@H](O)[C@H]1O` [Compound 13]: the “Inhibition of NO production at 50 µM (%)” value in series [1] (LPS-stimulated RAW264.7 cells) was “N.I”. In series [2], the “Cytotoxicity in RAW 264.7 cells (MTT)” value was “did not exhibit significant cytotoxicity”. Besides, in series [3], the inhibition at 100 µM came out at 22.7 ± 3.9%.
As for `O=c1c(O[C@@H]2O[C@H](CO)[C@@H](O)[C@H](O)[C@H]2O)c(-c2ccc(O)cc2)oc2cc(O)cc(O)c12` [Compound 14], the inhibition at 50 µM in series [1] (setting [4]) was 9%. In series [2], the “Cytotoxicity in RAW 264.7 cells (MTT)” value is recorded as “did not exhibit significant cytotoxicity”. Also, in series [3], the inhibition at 100 µM came to 78 ± 1% and the half-inhibitory concentration (IC50) was 21.3 ± 0.3 µM.
Turning to `COc1cc(C(=O)O)cc(OC)c1O` [Compound 23], the inhibition at 50 µM in series [1] (setting [4]) was 14.1%. Also, the inhibition at 100 µM in series [3] stood at 10.7 ± 3%.
For `COc1cc(C(=O)O)ccc1O` [Compound 26] the same measures were 11.4% and 21.3 ± 0.2%.
For `O=C(O)/C=C/c1ccc(O)cc1` [Compound 29] the same measures were 13.4% and 39.7 ± 4.4%.
Turning to `COc1cc(/C=C/C(=O)O)ccc1O` [Compound 31], in series [1] (setting [4]), the inhibition at 50 µM turned out to be 10.6%. The inhibition at 100 µM in series [3] is 43 ± 1.1%.
For `C[C@@H]1C[C@H]2[C@@H]3CCC4=CC(=O)C=C[C@]4(C)[C@@]3(F)[C@@H](O)C[C@]2(C)[C@@]1(O)C(=O)CO` [Dexamethasone, reference compound], the values for the IC50 in series [1] (LPS-stimulated RAW264.7 cells) and in series [1] (setting [5]) were 10.5 ± 0.1 µM and 10.5 ± 0.13 µM, respectively.
